According to paper PMC11971462, “Generation and validation of a novel multitarget small molecule in glioblastoma” (Cell Death & Disease, 2025):

Tested on: GNS166 cells
Test: Label-free proteomics differential expression
Assay type: cell-based, human
Protocol: Proteomic studies were performed by the Proteomics Facility of the CIC bioGUNE by label-free relative quantification on nLC MS/MS. […] In both approaches, the top 20 enriched terms were plotted and the pathways were clustered using divisive hierarchical clustering based on pairwise Jaccard distances.

C#CCN(Cc1cc2cc(OCCCN3CCCCC3)ccc2n1S(=O)(=O)c1ccccc1)C(=O)CCCCCCC(=O)NO [DDI]
LogFC SC61G_HUMAN (protein P60059): -0.7245
Direction S61A1_HUMAN (protein P61619): Down
LogFC S61A1_HUMAN (protein P61619): -0.5192
LogFC NPC2_HUMAN (protein P61916 GN=NPC2): 2.258
Direction RS7_HUMAN (protein P62081): Down
LogFC RS7_HUMAN (protein P62081): -0.4241
Direction PRS4_HUMAN (protein P62191): Down
LogFC PRS4_HUMAN (protein P62191): -0.4147
LogFC RS8_HUMAN (protein P62241 GN=RPS8): -0.4178
LogFC VISL1_HUMAN (protein P62760 GN=VSNL1): 1.015
LogFC RS15_HUMAN (protein P62841 GN=RPS15): -0.6326
LogFC GNAI1_HUMAN (protein P63096 GN=GNAI1): 2.584
Direction DYL1_HUMAN (protein P63167): Down
LogFC DYL1_HUMAN (protein P63167): -0.5083
LogFC YBOX1_HUMAN (protein P67809 GN=YBX1): -0.6246
Direction EF1A1_HUMAN (protein P68104): Down
LogFC EF1A1_HUMAN (protein P68104): -0.2726
Direction H31_HUMAN (protein P68431): Down
LogFC H31_HUMAN (protein P68431): -4.298
Direction IF4G2_HUMAN (protein P78344): Down
LogFC IF4G2_HUMAN (protein P78344): -0.799
Direction GTF2I_HUMAN (protein P78347): Down
LogFC GTF2I_HUMAN (protein P78347): -2.48
LogFC JAG1_HUMAN (protein P78504 GN=JAG1): 1.553
LogFC GABT_HUMAN (protein P80404 GN=ABAT): 1.722
LogFC HMGN5_HUMAN (protein P82970 GN=HMGN5): 1.669
LogFC NEXN_HUMAN (protein Q0ZGT2 GN=NEXN): 1.075
Direction ERC6L_HUMAN (protein Q2NKX8): Down
LogFC ERC6L_HUMAN (protein Q2NKX8): -1.52
Direction TSR1_HUMAN (protein Q2NL82): Down
LogFC TSR1_HUMAN (protein Q2NL82): -0.7691
Direction QRIC1_HUMAN (protein Q2TAL8): Down
LogFC QRIC1_HUMAN (protein Q2TAL8): -0.7876
Direction RABL6_HUMAN (protein Q3YEC7): Down
LogFC RABL6_HUMAN (protein Q3YEC7): -0.9067
LogFC CCD58_HUMAN (protein Q4VC31 GN=CCDC58): 2.085
LogFC TM41B_HUMAN (protein Q5BJD5 GN=TMEM41B): 1.572
Direction MEST_HUMAN (protein Q5EB52): Down
LogFC MEST_HUMAN (protein Q5EB52): -1.179
LogFC EMC4_HUMAN (protein Q5J8M3 GN=EMC4): 0.9113
LogFC HABP4_HUMAN (protein Q5JVS0 GN=HABP4): 1.16
Direction S27A3_HUMAN (protein Q5K4L6): Down
LogFC S27A3_HUMAN (protein Q5K4L6): -1.576
Direction CAF17_HUMAN (protein Q5T440): Down
LogFC CAF17_HUMAN (protein Q5T440): -1.623
LogFC FRY_HUMAN (protein Q5TBA9 GN=FRY): 0.4095
Direction CDKAL_HUMAN (protein Q5VV42): Down
LogFC CDKAL_HUMAN (protein Q5VV42): -0.9728
LogFC LYPL1_HUMAN (protein Q5VWZ2 GN=LYPLAL1): 2.901
Direction ECM29_HUMAN (protein Q5VYK3): Down
LogFC ECM29_HUMAN (protein Q5VYK3): -1.336
Direction P4R3A_HUMAN (protein Q6IN85): Down
LogFC P4R3A_HUMAN (protein Q6IN85): -0.9894
Direction NEPRO_HUMAN (protein Q6NW34): Down
LogFC NEPRO_HUMAN (protein Q6NW34): -2.0501
Direction CAVN1_HUMAN (protein Q6NZI2): Down
LogFC CAVN1_HUMAN (protein Q6NZI2): -0.9705
Direction PRP8_HUMAN (protein Q6P2Q9): Down
LogFC PRP8_HUMAN (protein Q6P2Q9): -0.5767
LogFC PDXD1_HUMAN (protein Q6P996 GN=PDXDC1): -1.201
LogFC MDEAS_HUMAN (protein Q6PJG2 GN=MIDEAS): -1.368
LogFC TMED8_HUMAN (protein Q6PL24 GN=TMED8): 1.071
LogFC F111B_HUMAN (protein Q6SJ93 GN=FAM111B): 1.175
Direction MCAF1_HUMAN (protein Q6VMQ6): Down
LogFC MCAF1_HUMAN (protein Q6VMQ6): -0.5577
Direction DNMBP_HUMAN (protein Q6XZF7): Down
LogFC DNMBP_HUMAN (protein Q6XZF7): -1.235
LogFC HSDL2_HUMAN (protein Q6YN16 GN=HSDL2): 0.7277
Direction NFXL1_HUMAN (protein Q6ZNB6): Down
LogFC NFXL1_HUMAN (protein Q6ZNB6): -0.9938
Direction QSOX2_HUMAN (protein Q6ZRP7): Down
LogFC QSOX2_HUMAN (protein Q6ZRP7): -1.536
LogFC SRCAP_HUMAN (protein Q6ZRS2 GN=SRCAP): -1.996
Direction CCD9B_HUMAN (protein Q6ZUT6): Down
LogFC CCD9B_HUMAN (protein Q6ZUT6): -1.697
LogFC SND1_HUMAN (protein Q7KZF4 GN=SND1): 0.6224
LogFC SV2A_HUMAN (protein Q7L0J3 GN=SV2A): 0.9586
Direction CYFP1_HUMAN (protein Q7L576): Down
LogFC CYFP1_HUMAN (protein Q7L576): -0.7029
Direction POGZ_HUMAN (protein Q7Z3K3): Down
LogFC POGZ_HUMAN (protein Q7Z3K3): -1.413
LogFC MON2_HUMAN (protein Q7Z3U7 GN=MON2): -0.4314
Direction KI21A_HUMAN (protein Q7Z4S6): Down
LogFC KI21A_HUMAN (protein Q7Z4S6): -1.343
Direction CAMP2_HUMAN (protein Q08AD1): Down
LogFC CAMP2_HUMAN (protein Q08AD1): -0.4479
LogFC H2A2B_HUMAN (protein Q8IUE6 GN=H2AC21): -0.9956
LogFC RIOX2_HUMAN (protein Q8IUF8 GN=RIOX2): -1.969
LogFC ARMC8_HUMAN (protein Q8IUR7 GN=ARMC8): -2.228
Direction CEP97_HUMAN (protein Q8IW35): Down
LogFC CEP97_HUMAN (protein Q8IW35): -0.4382
LogFC LRC8A_HUMAN (protein Q8IWT6 GN=LRRC8A): -0.7869
Direction CCAR1_HUMAN (protein Q8IX12): Down
LogFC CCAR1_HUMAN (protein Q8IX12): -0.6634
Direction RAVR1_HUMAN (protein Q8IY67): Down
LogFC RAVR1_HUMAN (protein Q8IY67): -2.239
LogFC SMAP1_HUMAN (protein Q8IYB5 GN=SMAP1): -0.6906
Direction TRI22_HUMAN (protein Q8IYM9): Down
LogFC TRI22_HUMAN (protein Q8IYM9): -2.3161
LogFC LRC47_HUMAN (protein Q8N1G4 GN=LRRC47): -0.5175
LogFC PIAS4_HUMAN (protein Q8N2W9 GN=PIAS4): 0.8535
Direction ASCC3_HUMAN (protein Q8N3C0): Down
LogFC ASCC3_HUMAN (protein Q8N3C0): -0.4031
Direction MILK1_HUMAN (protein Q8N3F8): Down
LogFC MILK1_HUMAN (protein Q8N3F8): -1.876
LogFC DHRSX_HUMAN (protein Q8N5I4 GN=DHRSX): -1.799
LogFC ARFG2_HUMAN (protein Q8N6H7 GN=ARFGAP2): -2.652
LogFC FITM2_HUMAN (protein Q8N6M3 GN=FITM2): 1.422
Direction INT1_HUMAN (protein Q8N201): Down
LogFC INT1_HUMAN (protein Q8N201): -1.252
Direction CPSF7_HUMAN (protein Q8N684): Down
LogFC CPSF7_HUMAN (protein Q8N684): -0.7682
Direction CGAS_HUMAN (protein Q8N884): Down
LogFC CGAS_HUMAN (protein Q8N884): -1.895
LogFC PR38A_HUMAN (protein Q8NAV1 GN=PRPF38A): 1.096
